From ChEMBL document CHEMBL1149094, “3-(4-Aroyl-1-methyl-1H-pyrrol-2-yl)-N-hydroxy-2-propenamides as a new class of synthetic histone deacetylase inhibitors. 3. Discovery of novel lead compounds through structure-based drug design and docking studies” (J Med Chem, 2004) come the findings set out here.

pIC50: −log10 of the molar value.

For test [1], the target named is T1, Histone deacetylase HD2 (Zea mays, UniProt Q94F81).
T1 sequence (Q94F81 whole entry): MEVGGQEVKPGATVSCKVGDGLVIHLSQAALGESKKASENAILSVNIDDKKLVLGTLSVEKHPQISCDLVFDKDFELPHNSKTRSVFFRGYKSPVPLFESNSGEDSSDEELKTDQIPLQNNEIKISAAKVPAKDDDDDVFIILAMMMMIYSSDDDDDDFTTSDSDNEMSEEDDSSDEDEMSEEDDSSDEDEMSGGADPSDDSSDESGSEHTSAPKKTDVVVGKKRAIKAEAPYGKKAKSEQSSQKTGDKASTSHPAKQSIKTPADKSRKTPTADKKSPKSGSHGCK
Kind of test: Inhibition of maize Histone deacetylase 2.

Test [2] addresses T2, Histone deacetylase 1 (Mus musculus, UniProt O09106). The test is described as follows: Inhibition of mouse Histone deacetylase 1 (HDAC1) receptor.
Test [3] deals with T3, Histone deacetylase HD2 (Zea mays) (UniProt Q94F81).
T3 sequence (whole entry): T1 sequence (Q94F81 whole entry)
Kind of test: Percent inhibition of maize histone deacetylase 2 receptor at a dose of 30 uM.

The target in test [4] is T1, Histone deacetylase HD2. The test is described as follows: Inhibition of maize histone deacetylase 2.
Test [5] deals with T2, Histone deacetylase 1. Kind of test: Inhibition of mouse HDAC1.

T2 sequence (O09106 whole entry): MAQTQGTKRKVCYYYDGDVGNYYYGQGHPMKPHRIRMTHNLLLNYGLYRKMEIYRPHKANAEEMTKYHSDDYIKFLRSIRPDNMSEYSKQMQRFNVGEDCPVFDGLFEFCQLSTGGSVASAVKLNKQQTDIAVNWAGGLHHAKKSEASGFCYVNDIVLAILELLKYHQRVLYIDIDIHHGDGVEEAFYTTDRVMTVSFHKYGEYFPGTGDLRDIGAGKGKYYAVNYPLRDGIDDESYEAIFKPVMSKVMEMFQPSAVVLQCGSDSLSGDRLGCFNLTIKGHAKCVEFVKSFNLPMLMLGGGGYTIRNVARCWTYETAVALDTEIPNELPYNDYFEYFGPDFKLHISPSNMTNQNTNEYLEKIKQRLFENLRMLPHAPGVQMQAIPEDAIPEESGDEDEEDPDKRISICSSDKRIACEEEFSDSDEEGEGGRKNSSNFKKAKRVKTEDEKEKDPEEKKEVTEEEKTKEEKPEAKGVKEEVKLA

For orientation: pIC50 means −log10 of the IC50, conventionally taken in molar units. A lower pIC50 goes with a high IC50. In general, inhibition refers to the percentage by which the read-out fell short of the control. As for `Cn1cc(/C=C/C(=O)NO)cc1C(=O)c1ccccc1`, the pIC50 is 7.30 at Histone deacetylase HD2 [1], 6.11 on Histone deacetylase 1 [2], 7.30 against Histone deacetylase HD2 [4] and 6.11 against Histone deacetylase 1 [5]. In test [3], this compound displayed an inhibition of 97%.

Turning to `Cn1c(/C=C/C(=O)NO)ccc1C(=O)c1ccccc1`, the pIC50 on Histone deacetylase HD2 [1] is 6.60; at Histone deacetylase 1 [2], 6.60; against Histone deacetylase HD2 [4], 6.55; on Histone deacetylase 1 [5] it was 6.64. Besides, the inhibition in test [3] stood at 95%.
